Data: patent US4230711A (priority 1979, dated 1980)

Legend:
fungi = conditions: cited from earlier work
Erysiphe polygoni = conditions: in vivo
[1] = test system: Alternaria solani conidia; conditions: in vivo
Septoria apii = format: in vivo; conditions: @ 250 ppm; celery (Utah) plants; approximately 14 days; relative to untreated check plants
[2] = test system: Phytophthora infestans conidia; format: in vivo; conditions: @ 250 ppm; tomato (Bonny Best) seedlings sprayed, inoculated one day later; approximately 7 days; relative to untreated check plants

Row | SMILES | fungicidal activity (fungi) | % Control, Bean Powdery Mildew (Erysiphe polygoni) [%] | % Control, Tomato Early Blight [1] [%] | % Control, Celery Late Blight (Septoria apii) [%] | % Control, Tomato Late Blight [2] [%]
1 | O=C1c2ccccc2C(=O)N1SC(Cl)(Cl)Cl [N-(trichloromethylthio)phthalimide] | having fungicidal activity |  |  |  | 
2 | CC1(C)C(=O)N(SC(Cl)(Cl)Cl)C(=O)c2ccccc21 [Compound 1, N-(trichloromethylthio)-4,4-dimethyl homophthalimide] |  | 96 | 33 | 50 | 95
3 | CC1(C)C(=O)NC(=O)c2ccccc21 [Compound 3, 4,4-dimethyl homophthalimide] |  | 0 | 0 | 0 | 0
